Laboratory results taken from paper PMC7417534, “Cytochrome P450 inhibition potential and initial genotoxic evaluation of 14-O-[(4,6-diaminopyrimidine-2-yl)thioacetyl] mutilin” (Scientific Reports, 2020).
Read-outs that look alike come from different tables or passages of the source.

Experiments:
[1] = tested on: S. typhimurium TA97; assay: Ames test, strain TA97; type: cell-based, Salmonella typhimurium; conditions: − S9; positive control, 10 μg/plate
Text: (§1) S. typhimurium strains TA97, TA98, TA100, TA102 and TA1535 were stored and maintained as provided in the standard protocol. Each of the strains was checked for their genetic integrity prior to the experiment, and tested for biotin dependence, histidine dependence, biotin and histidine dependence, rfa marker (crystal violet) and presence of the plasmid pKM101 (ampicillin resistance) or pAQ1 (tetracycline resistance). Different strains were used to identify different types of mutations.
(§2) The test was carried out at five different concentrations of DPTM. […] Then 1 mL solution was diluted with distilled water by two fold. […] The negative control used in this experiment was 1 mL DMSO which was directly incorporated into 9 mL melted top agar.
(§3) The Ames test of DPTM was conducted as described in the literatures[42],[43] with some modifications. Briefly, 1 mL of strain was inoculated into 5 mL of nutrient broth, followed by incubating overnight at 37 °C. The mixture comprised respective strains, drug, negative and positive controls with the S9 for testing in the presence of metabolic activation system. For testing without S9, 1 × phosphate buffer saline (PBS, pH 7.4) replaced the S9 mix. The obtained mixtures were added into the tube, mixed well and incubated at 37 °C for 20 min. Then, the top agar was melted and 2 mL of this melted top agar was added to each tube and gently mixed. […] The results were expressed as the number of revertant colonies per plate. The experiments were performed in triplicate.

[2] = tested on: CYP3A4; conditions: cited from earlier work
[3] = tested on: S. typhimurium TA100; conditions: − S9; positive control, 5 μg/plate
Text: as §1, §2, §3

[4] = tested on: S. typhimurium TA1535; conditions: − S9; positive control, 5 μg/plate
Text: as §1, §2, §3

In the case of Nc1ccc([N+](=O)[O-])cc1N [4-nitro-o-phenylenediamine, reference compound], the “revertant colonies per plate, TA97” value [1] is reported as 803 ± 37 CFU.
In the case of C=C[C@]1(C)C[C@@H](OC(=O)CSc2nc3ccc(N)cc3[nH]2)[C@]2(C)[C@H](C)CC[C@]3(CCC(=O)[C@H]32)[C@@H](C)[C@@H]1O [14-O-((5-Amino-benzimidazole-2-yl)thioacetyl) mutilin], the IC50 ([2]; read-out: IC50 value, CYP3A4 inhibition) is listed as 1690 nM.
In the case of C=C[C@]1(C)C[C@@H](OC(=O)CS[C@@H]2CC[C@@H](N)C[C@H]2O)[C@]2(C)[C@H](C)CC[C@]3(CCC(=O)[C@H]32)[C@@H](C)[C@@H]1O [Lefamulin], the IC50 ([2]; read-out: IC50, inhibition for CYP3A4) is given as under 5000 nM.
With [N-]=[N+]=[N-].[Na+] [sodium azide, reference compound] the “revertant colonies per plate, TA100” value [3] was 984 ± 59 CFU and the “revertant colonies per plate, TA1535” value [4] was 774 ± 20 CFU.
